# Experimental data taken from patent publication EP1982730A1, “Pharmaceutical composition comprising l-carnitine and an antagonist of the membrane adenosine receptors, derivatives and/or pharmaceutically acceptable salts thereof, and their use in the preparation of drugs with non-toxic effect to inhibit the proliferation of neoplastic cells” (Farmacetika Limited, priority 2007, dated 2008).
# Key:
# [1] = test system: peripheral blood mononuclear cells (PBMC) from patients affected by chronic lymphocytic leukemia; test: PHA-induced cell blast formation / proliferation (BrdU incorporation ELISA) in ex vivo PBMC cultures; assay type: cell-based, human; settings: for % reduction in cell blast formation: PBMC stimulated with PHA 20 ug/mL
# From the text: The protocol for isolation and treatment of cells from patients affected by chronic lymphocytic leukemia comprised the following steps:
# • Blood sample taken between 8:00 and 9:30 a.m.; • Blood sample sent to the laboratory to be processed immediately; • Evaluation of the total volume of the blood received to proceed with 1:2 dilution with sterile saline solution; • Isolation of the mononuclear cells performed by layering of the blood on a Ficoll-Paque Plus density gradient at a ratio of 1:3, ensuring that the two phases remain separate; • Centrifugation for 40 minutes at 1800 rpm at room temperature; • Recovery of the PBMC layers in the interface between the Ficoll and the plasma; • Washing in saline solution to eliminate residual Ficoll centrifuging at 1200 rpm for 7 minutes at 4°C; • Washing in RPM1 1640 medium, centrifuging at 1200 rpm for 7 minutes at 4°C; • Pellet suspension in complete medium, i.e. RPM1 1640 with the addition of L-glutamine 4mM, penicillin at 50U/ml, streptomycin […] and with 10% of FBS (fetal bovine serum); • Preparation of a 10% cell suspension with Trypan Blue dye and counting of cells under the microscope with Burker camera; cell vitality is also checked using the dye exclusion test; • Counting of the total number of cells and adjustment of the cell concentration to the required value.
# The cells thus isolated were cultured in the complete culture medium, and a culture was prepared placing 1 mL of cell suspension in a 5 mL polypropylene […] (Falcon) to study cytokine expression and production, and 100 microL in each microplate well. To induce cell blast formation, mitogen phytohemagglutinin (PHA) (20 ug/mL (Pharmacia) selective for T-lymphocytes was added.
# The control culture was prepared without adding any mitogenic substance.
# The substance to be tested, i.e. L-carnitine and L-carnitine + suramin, at the desired concentration, was added both to cultures with and to those without mitogen. The cultures were incubated in an incubator at 37°C, in a humidified environment with 5% carbon dioxide added.
# Evaluation of cell proliferation and therefore of DNA synthesis by isolated and cultured PBMC was performed after stimulation with mitogen and using the Biotrak ELISA system (Amersham Biosciences Europe GmbH, Milan, Italy), based on the measure of incorporation of 5-bromo-2-deoxyuridine (BrdU), pyrimidine analog, into the newly synthesized DNA. 18 hours before the end of incubation 10 microl of culture medium containing BrdU at a final concentration of 10 micromol/L were added to the cultures. At the end of incubation the culture medium was removed by centrifuging the plates at 300 rpm for 10 minutes. Subsequently, the plates were kept in an oven at 60°C for one hour. This was followed by two incubations of 30 minutes each, first in the presence of a fixative required for cell fixation and DNA denaturation, then in the presence of a blocking buffer. After addition of the anti-BrdU antibody, combined with the enzyme peroxidase, the plates were incubated for 90 minutes, after which three washes of 5 minutes each were performed, using PBS. The substrate used for the colorimetric reaction consisted of 3,3',5,5'-tetramethylbenzidine. The reaction was blocked after 15 minutes with H2SO4 1M and the optical density was measured at a wavelength of 450 nanometers, using a plate reader spectrophotometer. The PBMC proliferation values in the different wells were expressed as optical density from which the optical density recorded in the control wells without BrdU was subtracted.
# [2] = test system: human peripheral blood mononuclear cells (PBMCs) in healthy volunteers; settings: lymphocytes from healthy volunteers stimulated with PHA; cited from earlier work
smiles,measurement,setting,value
"C[N+](C)(C)C[C@H](O)CC(=O)[O-] [Carnitine, L-carnitine]",% reduction in cell blast formation,"[1]; Patient 1, I.S. 1.9",30%
same,% reduction in cell blast formation,"[1]; Patient 2, I.S. 3.4",65%
same,% reduction in cell blast formation,"[1]; Patient 3, I.S. 4.4",40%
same,% reduction in cell blast formation,"[1]; Patient 4, I.S. 1.6",24.4%
same,% reduction in cell blast formation,"[1]; Patient 5, I.S. 2.3",16.5%
same,proliferation induced with PHA,"[1]; all patients, summary in words",reduces the proliferation induced with PHA in all patients
same,blastogenesis of T lymphocytes caused by phytohemagglutinin (PHA),[2],"inhibits, in a dose-dependent manner"
